# In PMC12084297, “Cytoplasmic connexin43-microtubule interactions promote glioblastoma stem-like cell maintenance and tumorigenicity” (Cell Death & Disease, 2025):
# Assays:
# [1] = test system: Cx43; assay: Cx43 protein expression, immunoblot, VTC-001 GSCs; type: cell-based, human; conditions: 50 μM, 24 h
# Experimental: Cells were lysed in RIPA buffer (0.1% sodium dodecyl sulphate, 50 mM Tris pH 7.4, 150 mM NaCl, 1 mM EDTA, 1% Triton X-100, 1% deoxycholic acid, 200 μM Na3VO4, and 1 mM NaF) supplemented with Halt^TM Protease and Phosphatase Inhibitor Cocktail (Thermo Fisher). Lysates were sonicated prior to centrifugation at 4 °C for 20 min at 10,000 x g. Protein concentration was quantified using the DC protein assay (Bio-Rad Laboratories) and a standard curve obtained with increasing concentrations of Bovine Serum Albumin (BSA; Fisher Scientific). Protein samples were normalized to 20 μg total protein per lane and resolved by SDS-PAGE electrophoresis. 4X Bolt LDS sample buffer supplemented with 400 mM DTT (final concentration 1X Bolt LDS with 100 mM DTT) was added to samples before heating at 70 °C for 10 min. SDS-PAGE was run using NuPAGE Bis-Tris 4%–12% gradient gels (Thermo Fisher) with MES or MOPS running buffer according to manufacturer’s instructions. Spectra™ Multicolor Protein Ladder (Thermo Fisher) or Precision Plus Protein™ Kaleidoscope™ Prestained Protein Standards (Bio-Rad Laboratories) were included as protein ladders on the same gels. […] Membranes were imaged on a ChemiDoc™ imaging system, and analyzed with Image Lab software (Bio-Rad Laboratories). […]
# [2] = test system: normal human astrocytes; assay: Caspase 3/7 activity, human astrocytes; type: cell-based; conditions: 100 μM, 2 days
# Experimental: (§1) Cells were plated in 96-well plates (2000–5000 cells per well) and treated the following day with TMZ (10, 50, or 100 μM), antennapedia, JM2-scrambled, or JM2 (10, 50, or 100 μM). After 4 days, cell viability was monitored following addition of MTS reagent (Promega) according to manufacturer’s instructions. The absorbance at 490 nm was measured using a SpectraMax i3 or iD3 microplate reader (Molecular Devices). For the caspase 3/7 activity assay, cells were plated in 96-well plates (2000 cells per well) and treated with TMZ or peptides as described above. The activity of caspase 3/7 was measured after 48 h using the Caspase-Glo® 3/7 assay (Promega) following the manufacturer’s instructions. Fold change of caspase 3/7 activity was defined as the ratio of caspase 3/7 luminescence in treated cells compared to controls.
# [3] = test system: VTC-001 GSCs; assay: MTS viability, VTC-001 GSCs; type: cell-based, human; conditions: 4 days
# Experimental: as §1
# [4] = test system: VTC-034 GSCs; assay: Cellular uptake by NeutrAvidin-HRP blotting, VTC-034 GSCs; type: in vitro ADME, human
# Excerpt: JM2 peptide includes the Cx43 C-terminal amino acids 231–245 that encompass the tubulin binding sequence (VFFKGVKDRVKGRSD). A control peptide, JM2-scrambled, was generated by random re-assembly of the same residues (GSDVFKRKFVDRKVG). Both peptides contain a 16-amino acid antennapedia internalization sequence (RQPKIWFPNRRKPWKK) and are N-terminally biotinylated. Lyophilized peptides were obtained from Peptron, Inc. (South Korea) with purity > 95%, reconstituted in water or in PBS at a concentration of 10 mM, and aliquots were stored at −80 °C freezer. Reconstituted peptides were added to the cell culture medium at different concentrations for times indicated. […]
# Cells were lysed in RIPA buffer (0.1% sodium dodecyl sulphate, 50 mM Tris pH 7.4, 150 mM NaCl, 1 mM EDTA, 1% Triton X-100, 1% deoxycholic acid, 200 μM Na3VO4, and 1 mM NaF) supplemented with Halt^TM Protease and Phosphatase Inhibitor Cocktail (Thermo Fisher). […] Protein concentration was quantified using the DC protein assay (Bio-Rad Laboratories) and a standard curve obtained with increasing concentrations of Bovine Serum Albumin (BSA; Fisher Scientific). […] Membranes were imaged on a ChemiDoc™ imaging system, and analyzed with Image Lab software (Bio-Rad Laboratories). […]
sequence,measurement,setting,value
VFFKGVKDRVKGRSD [JM2],Cx43 protein expression,[1],without affecting Cx43 expression
same,Caspase 3/7 activity in normal human astrocytes,[2],No effect on caspase 3/7
same,GSC viability with JM2 alone in combination experiment (MTS),"[3]; VTC-001 adherent GSCs, 100 μM",significantly decreased GSC viability
same,GSC survival (MTS),"[3]; VTC-001 adherent GSCs, 10, 50 or 100 μM","significantly decreased VTC-001, VTC-034, and VTC-037 GSC survival when cultured as adherent cells in a dose-dependent manner"
same,Cellular uptake over time,"[4]; 50 μM, different times up to 48 h, NeutrAvidin-HRP blot","apparent after 1 h, and sustained for 24 h before JM2 signal in GSCs decreased at 48 h"
same,Cellular uptake at increasing concentrations,"[4]; different concentrations, 24 h, NeutrAvidin-HRP blot of biotin-tagged peptide",Cellular uptake of JM2 at increasing concentrations was confirmed
